One test relates to NAD biosynthesis pathway. As to the kind of experiment: Monitoring inhibition of NAD biosynthesis. The class given is cell-based. Particulars: 48 hours of treatment; several cell lines; detection with PBI 4312. The protocol:
Cells were plated at 7.5×10^3 cells/12.5 ul into wells of a 384-well plates. The cells were plated in full media containing 10% FBS (PC3 and A549 cells in F12K; Hela, MD-AMB and HET 116 cells in DMEM without pyruvate; HepG2 cells in E-MEM and Jurkat cells in RPMI). […] The cells were placed in a CO2 dependent incubator. […] Promega Cat. No V8920) was added to each well. The reaction was incubated for 30 minutes at room temperature, and luminescence measured using a Tecan plate luminometer. The data are shown as % inhibition compared to control (no inhibitor) and are plotted using the sigmoidal dose-response, variable slope model supplied with SigmaPlot 11.0 software. A signal-to-background ratio (S/B) calculated between control cells and cells treated with the highest FK866 concentration.

For another test, the system named is HeLa cells. As to the kind of experiment: Fluorescent imaging of live cells. The class given is cell-based. The note with it: 10 μM substrate. The protocol: HeLa cells were plated at 40,000 cell/well into wells of an 8-well chambered coverslip and incubated at 37° C.+5% CO2. The media (DMEM) was replaced with warm complete media (with 10% FBS) containing 10 μM PBI-4412, 4413, 4440 or 4441. Cells were then transferred to a confocal microscope for imaging using 10% λ488 nm laser power (4412, 4413, and 4441) or 5% laser power (4440). All images (FIGS. 6a-d) are at 30× magnification.

The next test concerns HEK293 cells. As to the kind of experiment: Measuring metabolically active cells with quinone fluorescein derivatives. The note with it: HEK293 cell dilutions; 60 minutes; 480ex/530em. Type of test: cell-based. The protocol:
i. Two-fold serial dilutions of HEK293 cells were prepared in full DMEM media, and 100 μl per well were transferred into wells of 96-well plates. Compounds PBI 4440 and 4412 were diluted in full DMEM media to make 20 μM and 10 μM stocks, respectively. 100 μl of the prepared compound stocks were added to the cells, and the cells were incubated for 60 minutes in a 37° C., 5% CO2 incubator. Following incubation, the cells were removed from incubator, and fluorescence measured with Tecan Infinite 500 at 480ex/Em530em wavelength.

For a further test, the system named is Clostridium diaphorase. As to the kind of experiment: Fluorescent NADH detection assay, Clostridium diaphorase. Type of test: biochemical. The note with it: for FLUs: 1 u/ml Clostridium diaphorase; for Fluorescence time course, Clostridium: 10 uM NADH. The protocol: Each fluorescent substrate (PBI-4412, 4413, 4440, and 4441) was incubated at 920 μM with 0 μM or 10 μM NADH (Sigma) or a titration of NADH (Table 8) and 1 u/ml rat diaphorase (Sigma) or 1 u/ml Clostridium diaphorase (Sigma) in a volume of 100 μl in 50 mM Tris pH 7.5. Single reactions were prepared in the wells of a 96-well black plate at room temperature. Fluorescence was monitored over the course of two hours at excitation and emission wavelengths of 485 and 527, respectively, using a fluorescence plate reader. […] Table 7 and FIGS. 24a-b show the reaction time course with each substrate with 10 uM NADH. Table 8 and FIG. 25 show the NADH titration at 60 minutes with PBI-4440 and 4412 with rat diaphorase.

The target in a further test is T1, rat diaphorase (Rattus norvegicus, UniProt P05982).
T1 construct: purchased Sigma
T1 sequence (P05982 2-274 limits assumed): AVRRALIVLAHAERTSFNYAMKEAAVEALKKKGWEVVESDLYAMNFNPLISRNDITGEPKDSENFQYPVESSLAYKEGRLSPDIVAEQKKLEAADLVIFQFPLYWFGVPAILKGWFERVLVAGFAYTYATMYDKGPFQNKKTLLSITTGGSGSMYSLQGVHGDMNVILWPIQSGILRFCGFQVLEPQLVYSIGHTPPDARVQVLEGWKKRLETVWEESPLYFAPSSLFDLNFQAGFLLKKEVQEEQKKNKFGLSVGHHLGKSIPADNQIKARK
The class given is biochemical. The note with it: for Fluorescence time course, Rat: 10 uM NADH.

Results on 2 compounds are retold here after patent US9951372B2, “Compounds and methods for assaying redox state of metabolically active cells and methods for measuring NAD(P)/NAD(P)H” (PROMEGA CORPORATION, priority 2011, dated 2018).

Where two headings read alike, the source gives them in different places.

As to `O=C(/C=C/c1cccnc1)NCCCCC1CCN(C(=O)c2ccccc2)CC1` [FK866], the “effect on cellular NAD levels” value in the test with NAD biosynthesis pathway is recorded as “decrease in NAD levels”.

`CC1=C(C)C(=O)C(C(C)(C)CC(=O)N(C)CCN(C)C(=O)Oc2ccc3c(c2)Oc2cc(O)ccc2C32OC(=O)c3ccccc32)=C(C)C1=O` (stereo not drawn) [PBI 4440, Mono-quinone trimethyllock diamine fluorescein]: in the test on HeLa cells, the “reduction of substrate in live cells (confocal images)” value is “only reduced once inside cells”. In addition, in the test on HEK293 cells, the “relationship of fluorescence to cell number” value is “linear correlation between cell number and fluorescence”. Also, the FLUs in the test with Clostridium diaphorase (0 μM NADH, 60 min) stood at 3050 FLUs; in the test with Clostridium diaphorase (10 μM NADH, 60 min, substrate 920 μM), 43362 FLUs; on rat diaphorase (0 μM NADH, 60 min, 1 u/ml rat diaphorase), 2922 FLUs; on rat diaphorase (10 μM NADH, 60 min, 1 u/ml rat diaphorase, substrate 920 μM) it was 180909 FLUs; at rat diaphorase (NADH 0 μM, 60 minutes, rat diaphorase) it was 2922 FLUs; on rat diaphorase (NADH 1.25 μM, 60 minutes, rat diaphorase), 24788 FLUs. For the same compound, the FLUs came to 50387 FLUs on rat diaphorase (NADH 2.5 μM, 60 minutes, rat diaphorase); 99331 FLUs on rat diaphorase (NADH 5 μM, 60 minutes, rat diaphorase); 180909 FLUs at rat diaphorase (NADH 10 μM, 60 minutes, rat diaphorase); 309004 FLUs at rat diaphorase (NADH 20 μM, 60 minutes, rat diaphorase); 304293 FLUs on rat diaphorase (NADH 40 μM, 60 minutes, rat diaphorase); 305861 FLUs at rat diaphorase (NADH 80 μM, 60 minutes, rat diaphorase). Further, the “Fluorescence time course, Clostridium” value with Clostridium diaphorase (2 min) amounted to 3611 FLUs; with Clostridium diaphorase (4 min), 7197 FLUs; in the test on Clostridium diaphorase (5 min), 10142 FLUs; with Clostridium diaphorase (10 min), 20624 FLUs; in the test with Clostridium diaphorase (20 min) it was 33781 FLUs; in the test on Clostridium diaphorase (30 min) it was 39807 FLUs. Besides, the “Fluorescence time course, Clostridium” value in the test on Clostridium diaphorase (40 min) came to 42268 FLUs; with Clostridium diaphorase (50 min), 43000 FLUs; in the test with Clostridium diaphorase (60 min), 43362 FLUs; in the test on Clostridium diaphorase (70 min) it was 43750 FLUs; with Clostridium diaphorase (80 min), 43425 FLUs; in the test with Clostridium diaphorase (90 min) it was 43468 FLUs. Further, the “Fluorescence time course, Clostridium” value in the test with Clostridium diaphorase (100 min) is listed as 43296 FLUs; in the test with Clostridium diaphorase (110 min), 43005 FLUs; in the test with Clostridium diaphorase (120 min), 43150 FLUs. Further, the “Fluorescence time course, Rat” value at rat diaphorase (2 min) came out at 6473 FLUs; on rat diaphorase (4 min) it was 18626 FLUs; at rat diaphorase (5 min) it was 28997 FLUs; at rat diaphorase (10 min), 73216 FLUs; at rat diaphorase (20 min) it was 133999 FLUs; at rat diaphorase (30 min) it was 161355 FLUs. The “Fluorescence time course, Rat” value was determined as 173345 FLUs at rat diaphorase (40 min); 178374 FLUs on rat diaphorase (50 min); 180909 FLUs at rat diaphorase (60 min); 182618 FLUs on rat diaphorase (70 min); 182416 FLUs at rat diaphorase (80 min); 182263 FLUs at rat diaphorase (90 min). Moreover, the “Fluorescence time course, Rat” value at rat diaphorase (100 min) was 181996 FLUs; at rat diaphorase (110 min) it was 182253 FLUs; at rat diaphorase (120 min) it was 182132 FLUs.
